# Literature values in patent publication US5246969A, “Di-propargyl-containing aryl/alkylsulfonyl-terminated alanine amino-diol compounds for treatment of hypertension” (G. D. Searle & Co., priority 1992, dated 1993).
# Square brackets hold non-standard residues; d marks the D form. Peptide text beside a SMILES is read from it. * marks the point of attachment. Sta = CC(C)C[C@H](N)[C@@H](O)CC(=O)O; Isovaleryl = CC(C)CC(=O)*
# System: hog renin
# Details: nephrectomized rats after the injection of hog renin
smiles,measurement,value
CC(C)CC(=O)N[C@H](C(=O)N[C@H](C(=O)N[C@@H](CC(C)C)[C@@H](O)CC(=O)N[C@@H](C)C(=O)N[C@@H](CC(C)C)[C@@H](O)CC(=O)O)C(C)C)C(C)C [pepstatin] (Isovaleryl-VV[Sta]A[Sta]-OH),blood pressure in vivo,reduce blood pressure
